{"source": "paper PMC13195669", "about": "“GPR3 Ligands Discovered through Combined Virtual and Conformational Biosensor-Based Screening” (Journal of the American Chemical Society, 2026)", "key": {"[1]": {"target": "T1, cannabinoid receptor 1 (CB1R) (Homo sapiens, UniProt P21554)", "T1 construct": "expressed in transfected cells; host or cells: HEK293A, transient", "T1 sequence (P21554 whole entry, species assumed)": "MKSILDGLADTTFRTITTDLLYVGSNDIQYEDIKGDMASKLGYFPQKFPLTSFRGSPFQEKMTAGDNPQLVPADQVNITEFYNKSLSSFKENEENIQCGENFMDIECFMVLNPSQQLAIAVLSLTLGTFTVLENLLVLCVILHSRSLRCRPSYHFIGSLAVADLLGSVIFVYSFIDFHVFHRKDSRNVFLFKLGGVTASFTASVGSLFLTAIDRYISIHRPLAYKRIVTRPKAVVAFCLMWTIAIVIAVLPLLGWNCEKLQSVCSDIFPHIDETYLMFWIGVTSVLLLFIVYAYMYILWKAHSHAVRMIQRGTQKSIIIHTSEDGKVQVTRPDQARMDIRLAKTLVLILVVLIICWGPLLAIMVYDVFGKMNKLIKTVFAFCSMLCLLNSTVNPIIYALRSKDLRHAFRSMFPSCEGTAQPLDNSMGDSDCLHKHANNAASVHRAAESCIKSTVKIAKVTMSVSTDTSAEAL", "assay": "cAMP GloSensor 22F, agonist-stimulated CB1R", "format": "cell-based", "conditions": "preincubation with 100 μM or 10 μM; 10 µM forskolin", "protocol": "Next, we used the classical cAMP GloSensor technology to assess the target selectivity profile of 33. […] In addition, we tested the effects of 33 on cAMP changes mediated by agonist-stimulated GPCRs phylogenetically close to GPR3 and coupling to Gs or Gi/o proteins.\nBRET-based GPCR conformational sensor experiments\nCells expressing the conformational GPCR biosensors were grown for 24 h (stable cells) or 48 h (transiently transfected cells) in white 96-well plates and washed with 100 µl of HBSS. After washing, cells were incubated for 2 minutes with a 1/1000 solution of the furimazine stock solution (Promega; cat. no. N1662). Three baseline BRET reads were recorded and averaged prior to the addition of serial dilutions of ligands or veh icle control and subsequent BRET reads. […] BRE T donor emission was quantified with a 470/80 nm monochromator. […] Experiments were carried out using a CLARIOstar plate reader.\nFRET- and BRET-based measurements of cAMP levels and Gs dissociation/reassociation Transfected cells grown in black 96-well plates were washed twice with 100 µl of HBSS 48 h after transfection and incubated with HBSS. […] Three baseline FRET/BRET reads were recorded and averaged prior to the addition of serial dilutions of ligands or vehicle control and sub-sequent FRET/BRET reads. […] FRET donor emission was quantified with a 480/10 nm filter. […]\nLuminescence measurement using the cAMP GloSensor™ 22F […]"}, "[2]": {"test_system": "GPR3 mutant (bulky tryptophan residues in extracellular loop 2)", "assay": "GPR3 conformational biosensor with tryptophan insertions in extracellular loop 2", "format": "cell-based, human", "conditions": "wildtype vs mutant biosensor; transiently transfected HEK293A", "text": "To develop a hypothesis for the cause of the significant loss in efficacy from VH1 to 33, we computationally predicted the binding poses of both molecules in GPR3 (Figure a). […] In contrast, the cyclopropyl ring of 33 is still buried in the receptor’s transmembrane core. […] We also challenged this binding model of 33 with another GPR3 biosensor variant which harbors the T^3.37A point mutation in transmembrane helix 3. According to an alternative predicted pose of 33 obtained with Boltz-2 (c.f., SI – Materials and Methods section), this mutation should hamper 33 binding to GPR3.\n5 Proposed binding poses of VH1 and 33. […]\nCells expressing the conformational GPCR biosensors were grown for 24 h (stable cells) or 48 h (transiently transfected cells) in white 96-well plates and washed with 100 µl of HBSS. […] Three baseline BRET reads were recorded and averaged prior to the addition of serial dilutions of ligands or veh icle control and subsequent BRET reads. […] BRE T donor emission was quantified with a 470/80 nm monochromator. […] Experiments were carried out using a CLARIOstar plate reader.\nFRET- and BRET-based measurements of cAMP levels and Gs dissociation/reassociation Transfected cells grown in black 96-well plates were washed twice with 100 µl of HBSS 48 h after transfection and incubated with HBSS. […] FRET donor emission was quantified with a 480/10 nm filter. […]"}}, "data": [{"compound": "N=c1n(Cc2ccccc2)c2ccccc2n1CC1CC1", "note": "[compound 33]", "values": [{"measurement": "effect on agonist-induced cAMP change mediated by CB1R", "setting": "[1]", "value": "neither 100 μM nor 10 μM 33 significantly altered"}, {"measurement": "effect of extracellular loop 2 tryptophan insertions on concentration-response", "setting": "[2]", "value": "not affected by these modifications"}]}, {"compound": "N=c1n(Cc2ccccc2)c2ccccc2n1CC(O)COc1ccc(Cl)cc1", "note": "(stereo not drawn) [compound 52]", "values": [{"measurement": "effect of extracellular loop 2 tryptophan insertions on concentration-response", "setting": "[2]", "value": "right-shifted"}]}]}
